{"source": "patent US8309577B2", "about": "“Quinuclidine compounds as α-7 nicotinic acetylcholine receptor ligands” (Bristol-Myers Squibb Company, priority 2008, dated 2012)", "key": {"[1]": {"target": "T1, α-7 nicotinic acetylcholine receptor channel expressed in HEK 293 cells (Rattus norvegicus, UniProt Q05941)", "T1 construct": "expressed in transfected cells", "T1 sequence (Q05941 23-502)": "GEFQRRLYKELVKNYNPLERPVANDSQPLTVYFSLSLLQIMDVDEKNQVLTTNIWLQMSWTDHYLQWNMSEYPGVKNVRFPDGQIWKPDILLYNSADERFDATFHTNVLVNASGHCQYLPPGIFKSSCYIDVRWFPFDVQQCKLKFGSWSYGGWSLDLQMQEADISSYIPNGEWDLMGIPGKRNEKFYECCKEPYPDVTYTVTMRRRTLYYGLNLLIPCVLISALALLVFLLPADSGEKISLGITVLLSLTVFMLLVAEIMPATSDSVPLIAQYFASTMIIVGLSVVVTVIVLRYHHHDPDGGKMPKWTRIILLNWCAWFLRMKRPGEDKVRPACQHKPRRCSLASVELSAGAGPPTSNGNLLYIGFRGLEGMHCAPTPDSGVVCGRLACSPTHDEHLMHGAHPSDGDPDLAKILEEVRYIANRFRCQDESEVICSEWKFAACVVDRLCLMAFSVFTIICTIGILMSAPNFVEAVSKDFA", "test": "Ca2+-sensitive fluorescence-based FLIPR assay, α7 nicotinic ACh receptor channel function (agonist)", "format": "cell-based", "details": "HEK 293 cells, agonist Ca2+ flux", "in_short": "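Potency and efficacy derived from kinetic FLIPR Ca²⁺-flux fluorescence, recorded 3 min after compound addition in Hanks buffer following a 10 s baseline.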"}, "mucosal mast cells": {"tested_on": "mucosal mast cells", "details": "Kageyama-Yahara et al. 2008; cited from earlier work"}, "[2]": {"details": "FLIPR α7 activity rating (EC50, nM), Table 1"}, "[3]": {"details": "FLIPR α7 activity rating (EC50, nM), Table Ib"}}}
{"smiles": "c1ccc(-c2cnc(NC3=NCC4(CN5CCC4CC5)O3)s2)cc1", "note": "(stereo not drawn) [Example 4, N-(5-Phenylthiazol-2-yl)-4H-1′-azaspiro[oxazole-5,3′-bicyclo[2.2.2]octan]-2-amine]", "values": [{"measurement": "EC50", "setting": "[1]; [2]", "result": "< 100", "unit": "nM"}, {"measurement": "melting point", "result": "187 to 189", "unit": "°C"}]}
{"smiles": "c1ccc2[nH]c(NC3=NCC4(CN5CCC4CC5)O3)nc2c1", "note": "(stereo not drawn) [Example 8, N-(1H-benzo[d]imidazol-2-yl)-4H-1′-azaspiro[oxazole-5,3′-bicyclo[2.2.2]octan]-2-amine]", "values": [{"measurement": "EC50", "setting": "[1]; [2]", "result": "100 to 1000", "unit": "nM"}, {"measurement": "melting point", "result": "255 °C (dec.)"}]}
{"smiles": "FC(F)Oc1ccc2nc(NC3=NC[C@@]4(CN5CCC4CC5)O3)sc2c1", "note": "[Example 22, (R)—N-(6-(Difluoromethoxy)benzo[d]thiazol-2-yl)-4H-1′-azaspiro[oxazole-5,3′-bicyclo[2.2.2]octan]-2-amine]", "values": [{"measurement": "EC50", "setting": "[1]; [2]", "result": "100 to 1000", "unit": "nM"}, {"measurement": "melting point", "result": "223 to 225", "unit": "°C"}]}
{"smiles": "FC(F)Oc1cc(NC2=NC[C@@]3(CN4CCC3CC4)O2)ncn1", "note": "[Example 144]", "values": [{"measurement": "EC50", "setting": "[1]; [2]", "result": "< 100", "unit": "nM"}, {"measurement": "melting point", "result": "185 to 190", "unit": "°C"}]}
{"smiles": "c1ccc2nc(NC3=NC[C@@]4(CN5CCC4CC5)O3)cnc2c1", "note": "[Example 220]", "values": [{"measurement": "EC50", "setting": "[1]; [2]", "result": "< 100", "unit": "nM"}, {"measurement": "melting point", "result": "212 to 215", "unit": "°C"}]}
{"smiles": "FC(F)COc1cc(NC2=NC[C@@]3(CN4CCC3CC4)O2)ncn1", "note": "[Example 233, (R)—N-(6-(2,2-Difluoroethoxy)pyrimidin-4-yl)-4H-1′-azaspiro[oxazole-5,3′-bicyclo[2.2.2]octan]-2-amine]", "values": [{"measurement": "EC50", "setting": "[1]; [2]", "result": "< 100", "unit": "nM"}, {"measurement": "melting point", "result": "83 to 88", "unit": "°C"}]}
{"smiles": "COc1cccc(-c2cc(NC3=NC[C@@]4(CN5CCC4CC5)O3)ncn2)c1", "note": "[Example 238, (R)—N-(6-(3-Methoxyphenyl)pyrimidin-4-yl)-4H-1′-azaspiro[oxazole-5,3′-bicyclo[2.2.2]octan]-2-amine]", "values": [{"measurement": "EC50", "setting": "[1]; FLIPR α7 (EC50, nM), Table 1", "result": 16, "unit": "nM"}, {"measurement": "EC50", "setting": "[1]; [2]", "result": "< 100", "unit": "nM"}, {"measurement": "melting point", "result": "80 to 85", "unit": "°C"}]}
{"smiles": "CSc1cnc(NC2=NC[C@@]3(CN4CCC3CC4)O2)cn1", "note": "[Example 250, (R)—N-(5-(Methylthio)pyrazin-2-yl)-4H-1′-azaspiro[oxazole-5,3′-bicyclo[2.2.2]octan]-2-amine]", "values": [{"measurement": "EC50", "setting": "[1]; [2]", "result": "< 100", "unit": "nM"}, {"measurement": "melting point", "result": "155 to 160", "unit": "°C"}]}
{"smiles": "Fc1ccc(Br)c2cnc(NC3=NC[C@@]4(CN5CCC4CC5)O3)cc12", "note": "[Example 346, (R)—N-(8-Bromo-5-fluoroisoquinolin-3-yl)-4H-1′-azaspiro[oxazole-5,3′-bicyclo[2.2.2]octan]-2-amine]", "values": [{"measurement": "EC50", "setting": "[1]; FLIPR α7 (EC50, nM), Table Ib", "result": 310, "unit": "nM"}, {"measurement": "EC50", "setting": "[1]; [3]", "result": "100 to 1000", "unit": "nM"}]}
{"smiles": "c1cn(-c2cc(NC3=NC[C@@]4(CN5CCC4CC5)O3)ncn2)cn1", "note": "[Example 347, (R)—N-(6-(1H-imidazol-1-yl)pyrimidin-4-yl)-4H-1′-azaspiro[oxazole-5,3′-bicyclo[2.2.2]octan]-2-amine]", "values": [{"measurement": "EC50", "setting": "[1]; [3]", "result": "< 100", "unit": "nM"}]}
{"smiles": "Cc1cn(-c2cc(NC3=NC[C@@]4(CN5CCC4CC5)O3)ncn2)cn1", "note": "[Example 348, (R)—N-(6-(4-Methyl-1H-imidazol-1-yl)pyrimidin-4-yl)-4H-1′-azaspiro[oxazole-5,3′-bicyclo[2.2.2]octan]-2-amine]", "values": [{"measurement": "EC50", "setting": "[1]; [3]", "result": "< 100", "unit": "nM"}]}
{"smiles": "Clc1cn(-c2cc(NC3=NC[C@@]4(CN5CCC4CC5)O3)ncn2)cn1", "note": "[Example 349, (R)—N-(6-(4-Chloro-1H-imidazol-1-yl)pyrimidin-4-yl)-4H-1′-azaspiro[oxazole-5,3′-bicyclo[2.2.2]octan]-2-amine]", "values": [{"measurement": "EC50", "setting": "[1]; [3]", "result": "< 100", "unit": "nM"}]}
{"smiles": "c1nc(NC2=NC[C@@]3(CN4CCC3CC4)O2)cc(-n2cncn2)n1", "note": "[Example 351, (R)—N-(6-(1H-1,2,4-triazol-1-yl)pyrimidin-4-yl)-4H-1′-azaspiro[oxazole-5,3′-bicyclo[2.2.2]octan]-2-amine]", "values": [{"measurement": "EC50", "setting": "[1]; [3]", "result": "< 100", "unit": "nM"}]}
{"smiles": "COc1ccc(/C=C2\\CCCN=C2c2cccnc2)c(OC)c1", "note": "[GTS-21]", "values": [{"measurement": "antigen-induced degranulation of mucosal mast cells", "setting": "mucosal mast cells", "result": "inhibits"}]}
